Patent US6015560A, “Antibody recognizing endothelial cell ligand for leukocyte CR3” (priority 1995, dated 2000)

Tests used:
leukocytes in CSF = experiment: Rabbit meningitis model: leukocyte migration into CSF; format: in vivo; conditions: for mean leukocyte concentration in CSF: peptides 10 μM i.v.; for reduction of CSF leukocytosis: peptides 10 μM, FHA 0.1 μM
Method: (§1) The rabbit model was performed according to an established protocol. Specific pathogen free, New Zealand white rabbits (2 kg; Hare Marland, Nutley, N.J.) were anesthetized with valium (2.5 mg/kg, subcutaneously, Hoffman-LaRoche, Nutley, N.J.), ketamine (35 mg/kg, intramuscularly, Aveco, Fort Dodge, Iowa) and xylazine (5 mg/kg, intramuscularly, Miles Laboratories, Shawnee, Kans.) and a helmet of dental acrylic was affixed to the calvarium. Twenty four hours later, the rabbits were anesthetized with ethyl carbamate (1.75 g/kg; Aldrich Chemical Co., Milwaukee, Wis.) and pentobarbital (15 mg/kg; Abbott Laboratories, Abbott Park, Ill.) and placed in a stereotaxic frame. A spinal needle was introduced into the cisterna magna and 300 μl of CSF was withdrawn. The animals were challenged intracisternally with 10^8 heat killed, unencapsulated pneumococcus strain R6 introduced in 200 μl of saline (time 0). One hour later, animals were treated with peptides dissolved in 1 ml of saline by intravenous injection into the right marginal ear vein. The concentration of FHA was 0.1 μM and that of the FHA Ia, Factor X II, and scrambled FHA II peptides was 10 μM. For the acetyl-FHA II, acetyl/amide-FHA II, dimer of FHA II and trimer of FHA II peptides, the concentration was 10^-3 μM. The concentration of FHA II is given in the results section. Samples of CSF were withdrawn at hourly intervals after pneumococcal inoculation and leukocyte density was measured using a cell counter (Coulter Electronics Inc., Hialeah, Fla.). CSF samples were centrifuged at 10,000×g for 5 minutes and the supernatant was stored at -70° C. until assayed for protein concentration using the bicinchoninic acid method (BCA Kit, Pierce Chemical Co., Rockford, Ill.) and for lactate concentration (Lactate Detection Kit, Sigma, St. Louis, Mo.). Statistically significant differences between treatments were determined by a one way analysis of variance test.
The anti-inflammatory effects of the administered peptides were assessed in the rabbit model for meningitis by the procedures described in Example 10. The animals received 1 ml of 1 uM peptide intravenously. In a slight departure from the protocol described in Example 10, samples of blood were drawn from the left marginal ear vein 30 minutes after the administration of the peptides to determine peripheral leukocyte concentrations.

neutrophils = experiment: Transendothelial migration of neutrophils; format: cell-based, human; conditions: peptides 0.01 mM
Method: Transendothelial migration of neutrophils was studied based on a method described by Muller et al. (1992), J. Exp. Med. 176: 819-828. Briefly, human neutrophils suspended in ice-cold Hanks balanced salt solution (HBSS) containing Ca^++ and Mg^++ (Sigma) were fluoresceinated by adding 3.3 μl/ml 5-(and 6-)carboxyfluorescein diacetate, succinimidyl ester (CFSE, Molecular Probes Inc., Oreg.). After incubation for 30 mins. on ice, neutrophils were washed twice in cold HBSS with Ca^++ and Mg^++ and resuspended in cold Medium 199 (M199, Sigma) to a final concentration of 10^6 /ml. Human umbilical vein endothelial cells were subcultured at confluence into 96-well tissue culture plates (Becton Dickinson Labware, Lincoln Park, N.J.) that were coated with hydrated collagen gel (Vitrogen; Collagen Corporation, Palo Alto, Calif.) and fibronectin. Endothelial cells were stimulated with 10 ng/ml TNF-alpha for 4 hours and washed three times with warm M199. Neutrophils (10^6 /ml) were preincubated with 0.01 mM of peptides or with 1 μM of native FHA in M199 for 5 mins. on ice before they were added in 100 μl aliquots to the endothelial cells. For positive control, neutrophils were pre-incubated with 25 μg/ml anti-CD18 mAb IB4. For negative control, neutrophils were treated with 25 μg/ml mAb W6/32 against HLA class I antigen (Dako, Carpinteria, Calif.). The cells were incubated for 1 hour at 37° C., 5% CO2. To terminate transmigration, the supernatant fluid was aspirated and the wells were filled with warm 1 mM EGTA (Sigma) in HBSS without Ca and Mg. The plates were covered with plate sealers (Dynatech, Alexandria, Va.) and centrifuged in an inverted position at 250 g for 3 mins. at room temperature. To remove residual non-transmigrated neutrophils from the endothelial cells, monolayers were washed twice with 200 μl of warm Hanks solution without Ca and Mg. Fluorescence was quantitated using a fluorescence counter (Millipore Cytofluor™ 2300). The percentage of transmigrated neutrophils was determined by comparing the amount of fluorescence of test wells with that measured in collagen- and fibronectin-coated wells without endothelial cells. […] Percent inhibition of transendothelial migration of neutrophils was calculated by comparing the number of transmigrated cells in wells containing neutrophils treated with peptide to neutrophils treated with M199 alone and arbitrarily set at 100% transendothelial migration (TEM).
(§2) The procedures for determining the neutrophil adherence to cultured endothelial cells and the transendothelial migration of neutrophils were identical with those of Example 9. Control values were the same as those shown in Example 9.

[1] = system: human umbilical vein endothelial cells; experiment: Adherence of neutrophils to cultured (TNF-stimulated) endothelial cells; format: cell-based; conditions: peptides 0.5 mM
Method: (§3) Human umbilical vein endothelial cells (HUVEC, first passage, Clonetics, San Diego, Calif.) were subcultured at confluence into Terasaki tissue culture wells. After 24 hours, confluent monolayers were used for adherence assays. Monolayers were stimulated with 10 ng/ml TNF alpha (Boehringer Mannheim, Indianapolis, Ind.) at 37° C. for four hours. 30 μl of human neutrophils (10^6 /ml) were labeled with fluorescein by the method of Lo et al. (1991), J. Exp. Med. 173 1493-1500, and preincubated for 15 minutes at 37° C. with 20 μl of peptides (0.5 mM in HAP) or HAP (phosphate buffered saline containing 0.5 mg/ml human serum albumin, 3 mM glucose, and 0.3 U/ml aprotinin) as a control buffer. For some experiments, endothelial cells were pretreated from 10 minutes with Factor X or antibodies against Factor X receptor (EPR-1; Altieri et al. (1990), J. Immunol. 145, 246-253) 12H1 and 9D4 (obtained from Dr. D. Altieri, Scripps Research Institute, Lajolla, Calif.) and then washed. Neutrophils were allowed to adhere to the monolayer for 15 mins. at 37° C. and unbound cells were removed by submersion of the plate in PBS buffer. The number of adherent neutrophils was counted in a 40× microscope field and expressed as a percentage of adherence in control wells with neutrophils treated with HAP buffer alone. The mAb IB4 against CD18 (50 μg/ml; Merck Inc., Rahway, N.J.) served as a positive control.
as §2

endothelial cells = experiment: Cooperative inhibition of neutrophil adherence by peptide plus antibody; format: cell-based, human; conditions: for additive reduction of neutrophil adherence: together with IB4 (50 μg/ml)
Method: as §3
The ability of FHA peptides and anti-CD18 or anti-Factor X receptor antibodies to interact cooperatively to inhibit neutrophil adherence to endothelial cells was assessed by measuring neutrophil adherence to endothelial cells in the presence of antibody as well as antibody plus peptide. Anti-CD18 mAb IB4 was added to leukocytes at 10 μg/ml 10 min before the assay. Anti-Factor X receptor mAb 12H1 (10 μl of ascites) or 9D4 (10 μg/ml) were added to the endothelial cell monolayers 10 min before the assay. The peptides were added at 5 μg/ml. The results are shown in Table 8 where the numerical values are in % of control binding.

blood brain barrier = experiment: Rabbit meningitis model: CSF protein and lactate (blood brain barrier permeability); format: in vivo; conditions: 10 μM peptides, 0.1 μM FHA
Method: as §1
Loss of barrier function of the cerebral capillary endothelium during inflammation is reflected by an influx of serum proteins into the CSF. […] To examine if the peptides were able to ameliorate these measures of cerebral injury, CSF protein and lactate concentrations were measured hourly in peptide-treated and control animals (Table 10).
Leukocyte migration into the CSF in bacterial meningitis is associated with loss of barrier function of the cerebral capillary endothelium, resulting in influx of serum proteins into the CSF. To determine whether FHA peptides were able to prevent this leukocyte-dependent injury, protein concentrations in the CSF were measured throughout the course of inflammation in peptide-treated and control animals.

Factor Xa = experiment: Generation of Factor Xa by monocytes (THP-1 cells); format: cell-based; conditions: 0.5 mM; for reduction of Factor Xa production: 20 min
Method: Factor Xa generation was determined by a modification of the method of Miletich et al. (1978), J. Biol. Chem. 253: 6908-6916. THP-1 cells (ATCC; 3×10^7 /ml) resuspended in RPMI 1640 (Bio Whittaker, Walkersville, Md.) were incubated with 100 μM ADP (Sigma), 2.5 mM CaCl2, 1 or 5 μg/ml Factor X (Hematologic Technologies Inc.) and 0.5 mM peptides at room temperature. After 20 minutes, 100 μl of the reaction mixture was transferred to 37° C. and supplemented with 100 μl of bovine factor VII- and Factor X-deficient plasma (Sigma). Coagulation was initiated by adding 100 μl of 25 mM CaCl2 and the clotting time was determined. Factor Xa procoagulant activity (ng/ml) was calculated by means of a standard curve constructed by serial concentrations of Factor Xa (Hematologic Technologies Inc.) from 50 to 250 ng/ml.

C3bi = experiment: Inhibition of binding of 12.1F9 to E-C3bi by peptides; parameters: species or system human; conditions: for block of binding of 12.1F9 to C3bi: e-c3bi on antibody-coated wells
Description: The antibody 12.1F9 maps to the region 1279-2011 of FHA. When the derived amino acid sequence of this region was compared to that of C3, a region of 11 amino acids with similar sequence was found between FHA residues 1408-1418 and C3 residues 1187-1197 (Table 14). […] However, the FHA-20-mer and the homologous C3-derived peptide blocked binding by up to 60%.

[2] = peptide 5 μg/ml plus 9D4 10 μg/ml
[3] = peptide 5 μg/ml plus 12H1 10 μl of ascites
[4] = peptide 5 μg/ml plus IB4 10 μg/ml

DEETVK [scrambled FHA II, reference compound]
mean leukocyte concentration in CSF (leukocytes in CSF; 7 hours): 6431±1380 /μl CSF
% Inhibition of TEM (neutrophils): 4 ± 5%
interference with neutrophil adherence (in words) [1]: did not interfere with neutrophil binding

ETKEVDG [FHA II]
anti-inflammatory effect (in words) (leukocytes in CSF; 10^-3 μM i.v.): ineffective
mean leukocyte concentration in CSF (leukocytes in CSF; 7 hours): 2645±1412 /μl CSF
leukocyte density vs control (in words) (leukocytes in CSF; 7 hours, 10^-1 μM): statistically significantly different from control
reduction of CSF leukocytosis (leukocytes in CSF): > 60%
% of control binding (endothelial cells; [2]): 45 ± 9 % of control binding
% of control binding (endothelial cells; [3]): 67 ± 13 % of control binding
% of control binding (endothelial cells; [4]): 11 ± 6 % of control binding
% of control binding (endothelial cells; peptide 5 μg/ml, no antibody): 40 ± 23 % of control binding
additive reduction of neutrophil adherence (endothelial cells): > 80±10%
protein influx into CSF and lactate generation (in words) (blood brain barrier): significantly reduced protein influx into the CSF and generation of lactate
Factor Xa generation (in words) (Factor Xa): did not interfere with the generation of Factor Xa procoagulant activity

GLIQGRSVKVD [FHA Ib]
% Inhibition of TEM (neutrophils): 7 ± 10%
reduction of Factor Xa production (Factor Xa): 81%

GLYQAKRFKVG [Factor X I, reference compound]
Factor Xa generation (in words) (Factor Xa): substantial reduction that did not reach statistical significance

GRTRG [FHA III]
% Inhibition of TEM (neutrophils): 5 ± 6%
interference with neutrophil adherence (in words) [1]: less effective than the corresponding Factor X derived peptide
reduction of Factor Xa production (Factor Xa): 74%

GYDTKQEDG [Factor X II, reference compound]
mean leukocyte concentration in CSF (leukocytes in CSF; 7 hours): 1622±521 /μl CSF
reduction of CSF leukocytosis (leukocytes in CSF): > 60%
protein influx into CSF and lactate generation (in words) (blood brain barrier): no significant reduction
reduction of Factor Xa production (Factor Xa): > 90%

IDRSMKTRG [Factor X III, reference compound]
% Inhibition of TEM (neutrophils): 5 ± 7%
Factor Xa generation (in words) (Factor Xa): substantial reduction that did not reach statistical significance

LGYQAK [FHA Ia]
mean leukocyte concentration in CSF (leukocytes in CSF; 7 hours): 1640±1210 /μl CSF
reduction of CSF leukocytosis (leukocytes in CSF): > 60%
% of control binding (endothelial cells; [2]): 63 ± 17 % of control binding
% of control binding (endothelial cells; [3]): 64 ± 12 % of control binding
% of control binding (endothelial cells; [4]): 20 ± 7 % of control binding
% of control binding (endothelial cells; peptide 5 μg/ml, no antibody): 63 ± 12 % of control binding
additive reduction of neutrophil adherence (endothelial cells): > 80±10%
protein influx into CSF and lactate generation (in words) (blood brain barrier): no significant reduction
interference with neutrophil adherence (in words) [1]: significantly more active than the Factor X peptide I

VTVGRGDPHQG [FHA RGD]
Adherence index (C3bi; peptides 50 μg/ml, normalized to a control value of 100): 85 ± 9

YTVAIAGYALA [C3-pep 1187-1197]
block of binding of 12.1F9 to C3bi (C3bi): up to 60%

YTVSADAIALA (YTVAIAGYALA) [FHA 1408-1418]
block of binding of 12.1F9 to C3bi (C3bi): up to 60%
